In ChEMBL document CHEMBL2177051:
The source made the active and inactive calls. The rule behind the calls is not given here.

The compounds below were run on HEK293 (assay: Inhibition of proteasome beta2 in HEK cell lysates at 1 to 100 uM after 1 hr by MV151 competitive SDS-PAGE analysis). Conditions: Homo sapiens.
For `CC(C)C[C@@H](CS(=O)(=O)F)NC(=O)[C@H](CC(C)C)NC(=O)[C@H](CC(C)C)NC(=O)[C@H](Cc1ccccc1)N=[N+]=[N-]`, the inhibition was “Active”. For `CC(C)C[C@@H](CS(=O)(=O)F)NC(=O)[C@H](CC(C)C)NC(=O)[C@H](CC(C)C)NC(=O)OC(C)(C)C`, the inhibition was “Active”. In the case of `CC(C)C[C@@H](CS(=O)(=O)F)NC(=O)[C@H](CC(C)C)NC(=O)[C@@H](N)CC(C)C`, the inhibition is reported as “Active”. In the case of `CC(C)C[C@@H](CS(=O)(=O)F)NC(=O)[C@@H](N)[C@@H](C)OCc1ccccc1`, the inhibition is reported as “inactive”. In the case of `CC(=O)N[C@@H](CC(C)C)C(=O)N[C@@H](CC(C)C)C(=O)N[C@@H](CC(C)C)C(=O)N[C@@H](CC(C)C)CS(=O)(=O)F`, the inhibition is reported as “Active”. With `CC[C@H](C)[C@H](N)C(=O)N[C@H](C(=O)N[C@@H](CC(C)C)CS(=O)(=O)F)[C@@H](C)O` the inhibition was “Active”. For `CC[C@H](C)[C@H](NC(C)=O)C(=O)N[C@H](C(=O)N[C@H](C(=O)N[C@@H](CC(C)C)CS(=O)(=O)F)[C@@H](C)O)[C@@H](C)CC`, the inhibition was “Active”. For `CC(C)C[C@@H](CS(=O)(=O)F)NC(=O)[C@H](Cc1ccccc1)NC(=O)c1cnccn1`, the inhibition was “inactive”. For `CC[C@H](C)[C@H](NC(=O)CN=[N+]=[N-])C(=O)N[C@H](C(=O)N[C@H](C(=O)N[C@@H](CC(C)C)CS(=O)(=O)F)[C@@H](C)O)[C@@H](C)CC`, the inhibition was “Active”. For `CC(C)C[C@@H](CS(=O)(=O)F)NC(=O)[C@@H](N)Cc1ccccc1`, the inhibition was “inactive”. `CC[C@H](C)[C@H](NC(=O)OC(C)(C)C)C(=O)N[C@H](C(=O)N[C@H](C(=O)N[C@@H](CC(C)C)CS(=O)(=O)F)[C@@H](C)OCc1ccccc1)[C@@H](C)CC` was tested, and the inhibition was “Active”. For `CC[C@H](C)[C@H](NC(C)=O)C(=O)N[C@H](C(=O)N[C@H](C(=O)N[C@@H](CC(C)C)CS(=O)(=O)F)[C@@H](C)OCc1ccccc1)[C@@H](C)CC`, the inhibition was “Active”. `CC[C@H](C)[C@H](NC(=O)CN=[N+]=[N-])C(=O)N[C@H](C(=O)N[C@H](C(=O)N[C@@H](CC(C)C)CS(=O)(=O)F)[C@@H](C)OC(C)=O)[C@@H](C)CC` was tested, and the inhibition was “Active”. `CC(C)C[C@@H](CS(=O)(=O)F)NC(=O)[C@H](CC(C)C)NC(=O)[C@H](CC(C)C)NC(=O)OCc1ccccc1` was tested, and the inhibition was “Active”. In the case of `CC[C@H](C)[C@H](N)C(=O)N[C@H](C(=O)N[C@H](C(=O)N[C@@H](CC(C)C)CS(=O)(=O)F)[C@@H](C)O)[C@@H](C)CC`, the inhibition is reported as “Active”. With `CC[C@H](C)[C@H](NC(=O)OC(C)(C)C)C(=O)N[C@H](C(=O)N[C@@H](CC(C)C)CS(=O)(=O)F)[C@@H](C)OCc1ccccc1` the inhibition was “Active”. For `CC(C)C[C@@H](CS(=O)(=O)F)NC(=O)[C@H](CC(C)C)NC(=O)[C@H](CC(C)C)NC(=O)[C@H](CC(C)C)NC(=O)OCc1ccccc1`, the inhibition was “Active”. `CC[C@H](C)[C@H](N)C(=O)N[C@H](C(=O)N[C@@H](CC(C)C)CS(=O)(=O)F)[C@@H](C)OCc1ccccc1` was tested, and the inhibition was “Active”. With `CC(C)C[C@@H](CS(=O)(=O)F)NC(=O)[C@H](CC(C)C)NC(=O)[C@H](CC(C)C)NC(=O)[C@@H](N)CC(C)C` the inhibition was “Active”. In the case of `CC[C@H](C)[C@H](N)C(=O)N[C@H](C(=O)N[C@H](C(=O)N[C@@H](CC(C)C)CS(=O)(=O)F)[C@@H](C)OCc1ccccc1)[C@@H](C)CC`, the inhibition is reported as “Active”.

The compounds below were run on HEK293 (assay: Inhibition of proteasome beta1 in HEK cell at 50 uM after 3 hrs by MV151 competitive SDS-PAGE analysis). Conditions: Homo sapiens.
Assay type: cell-based
In the case of `CC(C)C[C@@H](CS(=O)(=O)F)NC(=O)[C@H](CC(C)C)NC(=O)[C@H](CC(C)C)NC(=O)[C@H](CC(C)C)NC(=O)OCc1ccccc1`, the inhibition is reported as “Active”.

The compounds below were run on HEK293 (assay: Inhibition of proteasome beta1 in HEK cell lysates at 1 to 100 uM after 1 hr by MV151 competitive SDS-PAGE analysis). Conditions: Homo sapiens.
`CC(C)C[C@@H](CS(=O)(=O)F)NC(=O)[C@H](CC(C)C)NC(=O)[C@H](CC(C)C)NC(=O)[C@H](Cc1ccccc1)N=[N+]=[N-]` was tested, and the inhibition was “Active”. With `CC(C)C[C@@H](CS(=O)(=O)F)NC(=O)[C@H](CC(C)C)NC(=O)[C@H](CC(C)C)NC(=O)OC(C)(C)C` the inhibition was “Active”. With `CC(C)C[C@@H](CS(=O)(=O)F)NC(=O)[C@H](CC(C)C)NC(=O)[C@@H](N)CC(C)C` the inhibition was “Active”. For `CC(C)C[C@@H](CS(=O)(=O)F)NC(=O)[C@@H](N)[C@@H](C)OCc1ccccc1`, the inhibition was “inactive”. For `CC(=O)N[C@@H](CC(C)C)C(=O)N[C@@H](CC(C)C)C(=O)N[C@@H](CC(C)C)C(=O)N[C@@H](CC(C)C)CS(=O)(=O)F`, the inhibition was “Active”. In the case of `CC[C@H](C)[C@H](N)C(=O)N[C@H](C(=O)N[C@@H](CC(C)C)CS(=O)(=O)F)[C@@H](C)O`, the inhibition is reported as “Active”. `CC[C@H](C)[C@H](NC(C)=O)C(=O)N[C@H](C(=O)N[C@H](C(=O)N[C@@H](CC(C)C)CS(=O)(=O)F)[C@@H](C)O)[C@@H](C)CC` was tested, and the inhibition was “Active”. `CC(C)C[C@@H](CS(=O)(=O)F)NC(=O)[C@H](Cc1ccccc1)NC(=O)c1cnccn1` was tested, and the inhibition was “inactive”. `CC[C@H](C)[C@H](NC(=O)CN=[N+]=[N-])C(=O)N[C@H](C(=O)N[C@H](C(=O)N[C@@H](CC(C)C)CS(=O)(=O)F)[C@@H](C)O)[C@@H](C)CC` was tested, and the inhibition was “Active”. With `CC(C)C[C@@H](CS(=O)(=O)F)NC(=O)[C@@H](N)Cc1ccccc1` the inhibition was “inactive”. For `CC[C@H](C)[C@H](NC(=O)OC(C)(C)C)C(=O)N[C@H](C(=O)N[C@H](C(=O)N[C@@H](CC(C)C)CS(=O)(=O)F)[C@@H](C)OCc1ccccc1)[C@@H](C)CC`, the inhibition was “Active”. With `CC[C@H](C)[C@H](NC(C)=O)C(=O)N[C@H](C(=O)N[C@H](C(=O)N[C@@H](CC(C)C)CS(=O)(=O)F)[C@@H](C)OCc1ccccc1)[C@@H](C)CC` the inhibition was “Active”. In the case of `CC[C@H](C)[C@H](NC(=O)CN=[N+]=[N-])C(=O)N[C@H](C(=O)N[C@H](C(=O)N[C@@H](CC(C)C)CS(=O)(=O)F)[C@@H](C)OC(C)=O)[C@@H](C)CC`, the inhibition is reported as “Active”. With `CC(C)C[C@@H](CS(=O)(=O)F)NC(=O)[C@H](CC(C)C)NC(=O)[C@H](CC(C)C)NC(=O)OCc1ccccc1` the inhibition was “Active”. In the case of `CC[C@H](C)[C@H](N)C(=O)N[C@H](C(=O)N[C@H](C(=O)N[C@@H](CC(C)C)CS(=O)(=O)F)[C@@H](C)O)[C@@H](C)CC`, the inhibition is reported as “Active”. `CC[C@H](C)[C@H](NC(=O)OC(C)(C)C)C(=O)N[C@H](C(=O)N[C@@H](CC(C)C)CS(=O)(=O)F)[C@@H](C)OCc1ccccc1` was tested, and the inhibition was “Active”. For `CC(C)C[C@@H](CS(=O)(=O)F)NC(=O)[C@H](CC(C)C)NC(=O)[C@H](CC(C)C)NC(=O)[C@H](CC(C)C)NC(=O)OCc1ccccc1`, the inhibition was “Active”. In the case of `CC[C@H](C)[C@H](N)C(=O)N[C@H](C(=O)N[C@@H](CC(C)C)CS(=O)(=O)F)[C@@H](C)OCc1ccccc1`, the inhibition is reported as “Active”. In the case of `CC(C)C[C@@H](CS(=O)(=O)F)NC(=O)[C@H](CC(C)C)NC(=O)[C@H](CC(C)C)NC(=O)[C@@H](N)CC(C)C`, the inhibition is reported as “Active”. With `CC[C@H](C)[C@H](N)C(=O)N[C@H](C(=O)N[C@H](C(=O)N[C@@H](CC(C)C)CS(=O)(=O)F)[C@@H](C)OCc1ccccc1)[C@@H](C)CC` the inhibition was “Active”.

These compounds were tested on HEK293 (assay: Inhibition of proteasome beta5 in HEK cell lysates at 1 to 100 uM after 1 hr by MV151 competitive SDS-PAGE analysis). Conditions: Homo sapiens.
In the case of `CC(C)C[C@@H](CS(=O)(=O)F)NC(=O)[C@H](CC(C)C)NC(=O)[C@H](CC(C)C)NC(=O)[C@H](Cc1ccccc1)N=[N+]=[N-]`, the inhibition is reported as “Active”. `CC(C)C[C@@H](CS(=O)(=O)F)NC(=O)[C@H](CC(C)C)NC(=O)[C@H](CC(C)C)NC(=O)OC(C)(C)C` was tested, and the inhibition was “Active”. In the case of `CC(C)C[C@@H](CS(=O)(=O)F)NC(=O)[C@H](CC(C)C)NC(=O)[C@@H](N)CC(C)C`, the inhibition is reported as “Active”. In the case of `CC(C)C[C@@H](CS(=O)(=O)F)NC(=O)[C@@H](N)[C@@H](C)OCc1ccccc1`, the inhibition is reported as “inactive”. In the case of `CC(=O)N[C@@H](CC(C)C)C(=O)N[C@@H](CC(C)C)C(=O)N[C@@H](CC(C)C)C(=O)N[C@@H](CC(C)C)CS(=O)(=O)F`, the inhibition is reported as “Active”. In the case of `CC[C@H](C)[C@H](N)C(=O)N[C@H](C(=O)N[C@@H](CC(C)C)CS(=O)(=O)F)[C@@H](C)O`, the inhibition is reported as “Active”. For `CC[C@H](C)[C@H](NC(C)=O)C(=O)N[C@H](C(=O)N[C@H](C(=O)N[C@@H](CC(C)C)CS(=O)(=O)F)[C@@H](C)O)[C@@H](C)CC`, the inhibition was “Active”. For `CC(C)C[C@@H](CS(=O)(=O)F)NC(=O)[C@H](Cc1ccccc1)NC(=O)c1cnccn1`, the inhibition was “inactive”. For `CC[C@H](C)[C@H](NC(=O)CN=[N+]=[N-])C(=O)N[C@H](C(=O)N[C@H](C(=O)N[C@@H](CC(C)C)CS(=O)(=O)F)[C@@H](C)O)[C@@H](C)CC`, the inhibition was “Active”. `CC(C)C[C@@H](CS(=O)(=O)F)NC(=O)[C@@H](N)Cc1ccccc1` was tested, and the inhibition was “inactive”. In the case of `CC[C@H](C)[C@H](NC(=O)OC(C)(C)C)C(=O)N[C@H](C(=O)N[C@H](C(=O)N[C@@H](CC(C)C)CS(=O)(=O)F)[C@@H](C)OCc1ccccc1)[C@@H](C)CC`, the inhibition is reported as “Active”. In the case of `CC[C@H](C)[C@H](NC(C)=O)C(=O)N[C@H](C(=O)N[C@H](C(=O)N[C@@H](CC(C)C)CS(=O)(=O)F)[C@@H](C)OCc1ccccc1)[C@@H](C)CC`, the inhibition is reported as “Active”. `CC[C@H](C)[C@H](NC(=O)CN=[N+]=[N-])C(=O)N[C@H](C(=O)N[C@H](C(=O)N[C@@H](CC(C)C)CS(=O)(=O)F)[C@@H](C)OC(C)=O)[C@@H](C)CC` was tested, and the inhibition was “Active”. In the case of `CC(C)C[C@@H](CS(=O)(=O)F)NC(=O)[C@H](CC(C)C)NC(=O)[C@H](CC(C)C)NC(=O)OCc1ccccc1`, the inhibition is reported as “Active”. For `CC[C@H](C)[C@H](N)C(=O)N[C@H](C(=O)N[C@H](C(=O)N[C@@H](CC(C)C)CS(=O)(=O)F)[C@@H](C)O)[C@@H](C)CC`, the inhibition was “Active”. `CC[C@H](C)[C@H](NC(=O)OC(C)(C)C)C(=O)N[C@H](C(=O)N[C@@H](CC(C)C)CS(=O)(=O)F)[C@@H](C)OCc1ccccc1` was tested, and the inhibition was “Active”. `CC(C)C[C@@H](CS(=O)(=O)F)NC(=O)[C@H](CC(C)C)NC(=O)[C@H](CC(C)C)NC(=O)[C@H](CC(C)C)NC(=O)OCc1ccccc1` was tested, and the inhibition was “Active”. In the case of `CC[C@H](C)[C@H](N)C(=O)N[C@H](C(=O)N[C@@H](CC(C)C)CS(=O)(=O)F)[C@@H](C)OCc1ccccc1`, the inhibition is reported as “Active”. For `CC(C)C[C@@H](CS(=O)(=O)F)NC(=O)[C@H](CC(C)C)NC(=O)[C@H](CC(C)C)NC(=O)[C@@H](N)CC(C)C`, the inhibition was “Active”. In the case of `CC[C@H](C)[C@H](N)C(=O)N[C@H](C(=O)N[C@H](C(=O)N[C@@H](CC(C)C)CS(=O)(=O)F)[C@@H](C)OCc1ccccc1)[C@@H](C)CC`, the inhibition is reported as “Active”.

These compounds were tested on HEK293 (assay: Inhibition of proteasome beta5 in HEK cell at 5 uM after 3 hrs by MV151 competitive SDS-PAGE analysis). Conditions: Homo sapiens.
Assay type: cell-based
With `CC(C)C[C@@H](CS(=O)(=O)F)NC(=O)[C@H](CC(C)C)NC(=O)[C@H](CC(C)C)NC(=O)[C@H](CC(C)C)NC(=O)OCc1ccccc1` the inhibition was “Active”.

The compounds below were run on HEK293 (assay: Inhibition of proteasome beta2 in HEK cell at 50 uM after 3 hrs by MV151 competitive SDS-PAGE analysis). Conditions: Homo sapiens.
Assay type: cell-based
In the case of `CC(C)C[C@@H](CS(=O)(=O)F)NC(=O)[C@H](CC(C)C)NC(=O)[C@H](CC(C)C)NC(=O)[C@H](CC(C)C)NC(=O)OCc1ccccc1`, the inhibition is reported as “Active”.
